These results are taken from patent publication US4100346A, “Certain 7(o-amino-methyl- or methylaminomethylphenyl- or cyclohexadienyl- or thienylacetamide)-3[1-carboxymethyl-(or ethyl- or propyl-)-tetrazol-5-ylthiomethyl]-3-cephem-4-carboxylic acids” (Bristol-Myers Company, priority 1976, dated 1978).

Structures are written as SMILES. In brackets after ≈: the same amount, converted by molar mass. Several values for one entry are separate records, joined by “and”; a condition that tells them apart may be missing. Identical values can stand only once.

The test has as its system Mycobacterium tuberculosis. It is filed as cell-based.

`Cc1nnc(SCC2=C(C(=O)O)N3C(=O)[C@@H](NC(=O)Cn4cnnn4)[C@H]3SC2)s1` [Cefazolin]: the Minimum inhibitory concentration was 125 µg/mL and 250 µg/mL.

Consider `O=C(Cc1cccs1)N[C@@H]1C(=O)N2C(C(=O)[O-])=C(C[n+]3ccccc3)CS[C@H]12` [Cephaloridine], for which the Minimum inhibitory concentration is 63 µg/mL (≈ 152 µM).
